Literature values in patent US11980625B2, “Ganaxolone for use in treating tuberous sclerosis complex” (Marinus Pharmaceuticals, Inc., priority 2019, dated 2024).
Like-named read-outs stand apart in the source and are kept apart here.

How the values were obtained:
[1] = test system: patients with TSC-related epilepsy; conditions: 18 weeks, cited from earlier work
[2] = human plasma; cited from earlier work
[3] = test system: patients with TSC-related epilepsy; conditions: Phase 2, open-label, 3 months; cited from earlier work
[4] = test system: patients with TSC-related epilepsy; conditions: 16 weeks, cited from earlier work

SMILES: CO[C@H]1C[C@@H]2CC[C@@H](C)[C@@](O)(O2)C(=O)C(=O)N2CCCC[C@H]2C(=O)O[C@H]([C@H](C)C[C@@H]2CC[C@@H](OCCO)[C@H](OC)C2)CC(=O)[C@H](C)/C=C(\C)[C@@H](O)[C@@H](OC)C(=O)[C@H](C)C[C@H](C)/C=C/C=C/C=C/1C [AFINITOR ®]
- Median % change in seizure freq (Drug Response) ([1]; Phase 3, High-exposure): High-exposure: −39.6%
- Median % change in seizure freq (Drug Response) ([1]; Phase 3, Low-exposure): Low-exposure: −29.3%

SMILES: CC(=O)[C@H]1CC[C@H]2[C@@H]3CC[C@H]4C[C@H](O)CC[C@]4(C)[C@H]3CC[C@]12C [Allopregnanolone, 3α,5α-tetrahydroprogesterone, reference compound]
- half-life [2]: about 45 minutes

SMILES: C=C(C)[C@@H]1CCC(C)=C[C@H]1c1c(O)cc(CCCCC)cc1O [EPIDIOLEX ®]
- Median % change in seizure freq (Drug Response) [3]: −48.8%
- Median % change in seizure freq (Drug Response) ([4]; Phase 3, 25 mg/kg/day): 25 mg/kg/day: −48.6%
- Median % change in seizure freq (Drug Response) ([4]; Phase 3, High-exposure): High-exposure: −47.5%
